Experiment [1] deals with WM2032 cells. Type of experiment: cell-based, human. The conditions noted are these: WM2032, G9a inhibition by A-366. The source says:
(§1) In addition, the inventors investigated the growth inhibitory effects of IV in melanoma cells with different NRAS and BRAF status, including A375 and UACC62 (NRASWT, BRAFV600E), and SK-MEL-2 and WM2032 (NRASQ61R, BRAFWT).
(§2) To further confirm the pharmacological effects of IV derive from STK19 inhibition and not G9a inhibition, the inventors investigated the role of G9a in NRAS signaling activation. G9a was silenced by G9a-specific shRNA or inhibited by a specific inhibitor, A-366, in SK-MEL-2 and WM2032 melanoma cells. […] In summary, ZT-12-037-01 (IV) is a specific STK19-targeted inhibitor to block oncogenic NRAS-driven melanocyte malignant transformation and melanoma growth.

For experiment [2], the system named is SK-MEL-2 cells. In kind it is cell-based, human. Particulars: SK-MEL-2, G9a inhibition by A-366.
From the text: as §1, §2

Experiment [3] concerns the target STK19 (Homo sapiens (Human), UniProt P49842). Briefly: STK19 kinase inhibitory activity, ADP-Glo kinase assay with NRAS substrate. Type of experiment: biochemical.

The source of these data is patent US11542240B2, “STK19 inhibitors for treatment of cancer” (TRUSTEES OF BOSTON UNIVERSITY, priority 2018, dated 2023).

Sequence of STK19 (P49842 other isoform, or with tags, fused parts or gaps): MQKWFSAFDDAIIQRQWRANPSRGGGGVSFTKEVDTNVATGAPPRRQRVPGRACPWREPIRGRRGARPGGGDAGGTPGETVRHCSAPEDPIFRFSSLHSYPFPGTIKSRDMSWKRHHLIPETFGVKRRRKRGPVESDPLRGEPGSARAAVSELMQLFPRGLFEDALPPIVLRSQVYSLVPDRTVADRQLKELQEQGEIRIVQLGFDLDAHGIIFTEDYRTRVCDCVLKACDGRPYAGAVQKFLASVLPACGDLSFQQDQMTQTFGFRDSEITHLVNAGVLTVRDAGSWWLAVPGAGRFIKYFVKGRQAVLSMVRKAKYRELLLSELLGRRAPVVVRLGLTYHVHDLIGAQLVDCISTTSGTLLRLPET

For `COc1cc2c(cc1OCCCN1CCCC1)N=C(N)C21CCC1` [Formula A-366, reference compound], the H3K9 methylation levels result in experiment [1] and in experiment [2] was “markedly repressed” each time. In experiment [3] (in vitro kinase assay), the “inhibitory potential toward STK19” value was “little inhibitory potential”.

Take `COc1cc2nc(N3CCOCC3)nc(NC3CCN(C(C)C)CC3)c2cc1OC` [Formula XXI]: at 10 µM the inhibition in experiment [3] was 59%.
